Results reported in ChEMBL document CHEMBL1201862, “PubChem BioAssay data set” (2004).
The source made the active and inactive calls.

Tests used:
Mu-type opioid receptor = Mu-type opioid receptor (Homo sapiens, UniProt P35372); assay: SAR Analysis of Antagonists of the MOR Receptor using an Image-Based Assay - Set 3. [Related pubchem assays (depositor defined):AID1777, AID1785, AID1786, AID1966, AID2133, AID2136, AID2284, AID2285, AID2420]; type: functional
[1] = target: T1, Kappa-type opioid receptor (Homo sapiens, UniProt P41145); assay: SAR analysis of small molecule antagonists of the kappa opioid receptor via a luminescent beta-arrestin assay - Set 6. [Related pubchem assays (depositor defined):AID1777, AID1778, AID1785, AID1786, AID1966, AID2133, AID2136, AID2285]; type: functional
[2] = target: Delta-type opioid receptor (Homo sapiens, UniProt P41143); assay: SAR Analysis of Antagonists of the DOR Receptor using an Image-Based Assay - Set 3. [Related pubchem assays (depositor defined):AID1777, AID1785]; type: functional;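 further: U2OS cells expressing DOR1 and beta-arrestin GFP stimulated with 100 nM SNC80; imaging of GFP-tagged beta-arrestin moving into spots after receptor activation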
[3] = target: T1, Kappa-type opioid receptor; assay: SAR analysis of small molecule antagonists of the kappa opioid receptor via a luminescent beta-arrestin assay - Set 3. [Related pubchem assays (depositor defined):AID1777, AID1778, AID1785, AID1786, AID1966, AID2133, AID2136, AID2285, AID2495]; type: functional
[4] = target: T1, Kappa-type opioid receptor; assay: SAR analysis of Antagonists of the Kappa Opioid Receptor (KOR) using an Image-Based Assay - Set 4. [Related pubchem assays (depositor defined):AID1777, AID1785]; type: functional
Cannabinoid receptor 2 [5] = target: T2, Cannabinoid receptor 2 (Homo sapiens, UniProt P34972); assay: SAR analysis of antagonists of the Cannabinoid Receptor 2 using an Image-Based Assay - Set 2. [Related pubchem assays (depositor defined):AID1961, AID1965]; type: functional
[6] = target: G-protein coupled receptor 55 (Homo sapiens, UniProt Q9Y2T6); assay: SAR analysis of selective Agonists of GPR55 using an Image-Based Assay - Set 2. [Related pubchem assays (depositor defined):AID1961, AID1965]; type: functional
Cannabinoid receptor 2 [7] = target: T2, Cannabinoid receptor 2; assay: SAR analysis of agonists of the Cannabinoid Receptor 2 using an Image-Based Assay - Set 2. [Related pubchem assays (depositor defined):AID1961, AID1965]; type: functional
[8] = target: T3, G-protein coupled receptor 35 (Homo sapiens, UniProt Q9HC97); assay: SAR analysis of Agonists of the GPR35 Receptor using an Image-Based Assay - Set 3. [Related pubchem assays (depositor defined):AID1961, AID1965]; type: functional
Cannabinoid receptor 1 [9] = target: T4, Cannabinoid receptor 1 (Homo sapiens, UniProt P21554); assay: SAR analysis of antagonists of the Cannabinoid Receptor 1 using an Image-Based Assay - Set 3. [Related pubchem assays (depositor defined):AID1961, AID1965]; type: functional
Cannabinoid receptor 1 [10] = target: T4, Cannabinoid receptor 1; assay: SAR analysis of agonists of the Cannabinoid Receptor 1 using an Image-Based Assay - Set 3. [Related pubchem assays (depositor defined):AID1961, AID1965]; type: functional
[11] = target: T3, G-protein coupled receptor 35; assay: SAR analysis of Antagonists of the GPR35 Receptor using an Image-Based Assay - Set 4. [Related pubchem assays (depositor defined):[…]]; type: functional
[12] = target: T5, Mannose-6-phosphate isomerase (Homo sapiens, UniProt P34949); assay: Confirmation of compounds inhibiting phosphomannose isomerase (PMI) via a fluorescence intensity assay using a high concentration of mannose 6-phosphate. [Related pubchem assays (depositor defined):AID1209, AID1220, AID1545, AID1553, AID1620]
T5 sequence (P34949 whole entry): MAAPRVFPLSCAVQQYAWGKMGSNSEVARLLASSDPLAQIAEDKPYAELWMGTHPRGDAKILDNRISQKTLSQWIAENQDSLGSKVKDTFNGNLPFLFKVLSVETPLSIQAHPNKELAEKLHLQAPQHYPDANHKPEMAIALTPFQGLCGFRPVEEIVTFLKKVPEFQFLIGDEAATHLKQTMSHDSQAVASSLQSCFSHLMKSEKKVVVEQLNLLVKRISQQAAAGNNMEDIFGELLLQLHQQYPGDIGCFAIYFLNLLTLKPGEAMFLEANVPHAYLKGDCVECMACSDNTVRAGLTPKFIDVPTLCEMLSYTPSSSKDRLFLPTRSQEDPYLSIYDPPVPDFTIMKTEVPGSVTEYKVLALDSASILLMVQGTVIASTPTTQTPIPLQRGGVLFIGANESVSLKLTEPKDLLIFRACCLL

[13] = target: T5, Mannose-6-phosphate isomerase; assay: phosphomannose isomerase inhibition – biochemical, fluorescence intensity, confirmation (AID 1535)
[14] = target: Alkaline phosphatase, placental type (Homo sapiens, UniProt P05187); assay: human placental alkaline phosphatase inhibition – biochemical, luminescence, confirmation (AID 1512); type: functional
[15] = target: Envelope glycoprotein gp160 (Human immunodeficiency virus 1, UniProt Q6QLK5); assay: cell-free HIV fusion peptide-binding blockers – biochemical, uHTS, fluorescence dequenching, […] (AID 1986)
[16] = target: T6, Short transient receptor potential channel 4 (Mus musculus, UniProt Q9QUQ5); assay: block of DAMGO-driven TRPC4 calcium entry – cell-based, HEK293 TRPC4/mu-opioid, Fluo-4 calcium, dose response (AID 434942); type: functional;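 further: potency of inhibitors blocking the TRPC4 calcium response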
T6 sequence (Q9QUQ5 whole entry): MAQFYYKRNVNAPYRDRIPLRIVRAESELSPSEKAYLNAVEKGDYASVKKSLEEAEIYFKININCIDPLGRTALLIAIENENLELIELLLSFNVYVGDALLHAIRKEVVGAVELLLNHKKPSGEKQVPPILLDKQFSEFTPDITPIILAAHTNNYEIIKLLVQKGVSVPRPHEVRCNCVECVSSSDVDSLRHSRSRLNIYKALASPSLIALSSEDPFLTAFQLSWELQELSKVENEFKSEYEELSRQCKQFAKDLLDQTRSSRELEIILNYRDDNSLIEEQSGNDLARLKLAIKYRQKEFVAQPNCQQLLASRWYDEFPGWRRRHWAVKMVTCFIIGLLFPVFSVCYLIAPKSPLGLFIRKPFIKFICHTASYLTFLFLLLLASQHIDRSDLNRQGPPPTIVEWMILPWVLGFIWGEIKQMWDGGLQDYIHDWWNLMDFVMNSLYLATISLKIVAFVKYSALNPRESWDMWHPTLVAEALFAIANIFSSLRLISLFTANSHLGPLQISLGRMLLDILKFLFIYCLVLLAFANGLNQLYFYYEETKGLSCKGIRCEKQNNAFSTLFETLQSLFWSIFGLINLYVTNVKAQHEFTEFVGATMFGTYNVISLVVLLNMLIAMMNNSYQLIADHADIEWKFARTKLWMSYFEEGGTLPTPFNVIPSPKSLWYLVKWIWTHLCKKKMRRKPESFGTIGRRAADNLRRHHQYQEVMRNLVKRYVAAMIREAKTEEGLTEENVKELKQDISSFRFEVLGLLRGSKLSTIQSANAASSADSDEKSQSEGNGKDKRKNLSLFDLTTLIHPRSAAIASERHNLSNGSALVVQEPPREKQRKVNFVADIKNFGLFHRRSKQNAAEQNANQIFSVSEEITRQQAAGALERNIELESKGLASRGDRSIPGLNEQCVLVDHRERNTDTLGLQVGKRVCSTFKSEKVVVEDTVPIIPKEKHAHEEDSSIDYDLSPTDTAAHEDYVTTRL

[17] = target: Type-1 angiotensin II receptor (Homo sapiens, UniProt P30556); assay: agonist activity at AGTR1 – cell-based, uHTS hits, selectivity assay for APJ receptor agonist project, dose response (AID 488865); type: functional;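 further: beta-arrestin recruitment to AT1 measured by enzyme fragment complementation luminescence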
[18] = target: T6, Short transient receptor potential channel 4; assay: potentiation of DAMGO-evoked TRPC4 calcium signal – cell-based, HEK293 TRPC4/mu-opioid, Fluo-4 calcium, EC20 DAMGO, dose response (AID 434941); type: functional
[19] = target: DNA damage-inducible transcript 3 protein (Mus musculus, UniProt P35639); type: functional, Cricetulus griseus
Coagulation factor XII = target: T7, Coagulation factor XII (Homo sapiens, UniProt P00748); assay: Factor XIIa Dose Response Confirmation from Single Well HTS. [Related pubchem assays (depositor defined):AID701]; type: functional
T7 sequence (P00748 whole entry): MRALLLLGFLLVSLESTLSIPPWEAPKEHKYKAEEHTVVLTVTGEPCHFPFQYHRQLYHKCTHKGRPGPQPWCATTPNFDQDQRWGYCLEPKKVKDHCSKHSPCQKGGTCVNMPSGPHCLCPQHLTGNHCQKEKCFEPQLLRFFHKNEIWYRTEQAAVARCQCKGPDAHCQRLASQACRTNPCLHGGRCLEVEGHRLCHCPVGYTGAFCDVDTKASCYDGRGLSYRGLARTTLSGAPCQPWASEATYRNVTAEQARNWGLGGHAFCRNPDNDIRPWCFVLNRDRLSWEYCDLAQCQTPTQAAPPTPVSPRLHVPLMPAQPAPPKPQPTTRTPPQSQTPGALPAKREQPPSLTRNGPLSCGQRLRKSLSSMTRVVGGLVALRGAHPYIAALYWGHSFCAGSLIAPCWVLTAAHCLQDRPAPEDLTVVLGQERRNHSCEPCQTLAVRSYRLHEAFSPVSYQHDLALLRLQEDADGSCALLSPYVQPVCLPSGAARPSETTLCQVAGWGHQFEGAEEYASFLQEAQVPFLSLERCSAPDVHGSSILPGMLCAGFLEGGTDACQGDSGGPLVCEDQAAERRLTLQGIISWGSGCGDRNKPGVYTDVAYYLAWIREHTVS

[20] = target: T8, Tyrosine-protein phosphatase non-receptor type 7 (Homo sapiens, UniProt P35236); assay: redox-active compounds inhibiting HePTP phosphatase – biochemical, fluorescence, mechanism study (AID 2068); type: functional
T8 sequence (P35236 whole entry): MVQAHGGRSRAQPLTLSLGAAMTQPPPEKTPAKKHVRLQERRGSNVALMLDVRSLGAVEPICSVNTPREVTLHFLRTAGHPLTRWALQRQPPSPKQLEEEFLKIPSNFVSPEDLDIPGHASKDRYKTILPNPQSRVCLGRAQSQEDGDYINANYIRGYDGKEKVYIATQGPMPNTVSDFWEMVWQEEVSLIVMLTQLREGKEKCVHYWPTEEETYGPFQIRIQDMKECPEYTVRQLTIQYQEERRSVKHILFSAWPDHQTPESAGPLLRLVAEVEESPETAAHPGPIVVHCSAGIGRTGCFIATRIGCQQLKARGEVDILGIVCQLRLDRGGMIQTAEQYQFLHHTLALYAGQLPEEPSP

[21] = target: T9, Dual specificity protein phosphatase 6 (Rattus norvegicus, UniProt Q64346); type: functional;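 further: confirmatory in vitro dose-response testing of MKP-3 inhibition; recombinant His-tagged MKP-3 made in E. coli BL21 with OMFP substrate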
T9 sequence (Q64346 whole entry): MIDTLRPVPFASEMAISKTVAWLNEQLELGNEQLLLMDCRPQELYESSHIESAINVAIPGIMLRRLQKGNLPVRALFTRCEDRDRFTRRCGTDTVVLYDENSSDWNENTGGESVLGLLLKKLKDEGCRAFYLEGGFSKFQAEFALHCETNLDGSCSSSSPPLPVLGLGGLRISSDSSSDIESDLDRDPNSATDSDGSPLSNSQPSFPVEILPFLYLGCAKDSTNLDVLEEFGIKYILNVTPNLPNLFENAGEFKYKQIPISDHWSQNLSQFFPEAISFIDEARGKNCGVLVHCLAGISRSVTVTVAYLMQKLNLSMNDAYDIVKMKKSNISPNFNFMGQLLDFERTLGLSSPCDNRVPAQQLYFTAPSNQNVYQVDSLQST

T1 sequence (P41145 whole entry): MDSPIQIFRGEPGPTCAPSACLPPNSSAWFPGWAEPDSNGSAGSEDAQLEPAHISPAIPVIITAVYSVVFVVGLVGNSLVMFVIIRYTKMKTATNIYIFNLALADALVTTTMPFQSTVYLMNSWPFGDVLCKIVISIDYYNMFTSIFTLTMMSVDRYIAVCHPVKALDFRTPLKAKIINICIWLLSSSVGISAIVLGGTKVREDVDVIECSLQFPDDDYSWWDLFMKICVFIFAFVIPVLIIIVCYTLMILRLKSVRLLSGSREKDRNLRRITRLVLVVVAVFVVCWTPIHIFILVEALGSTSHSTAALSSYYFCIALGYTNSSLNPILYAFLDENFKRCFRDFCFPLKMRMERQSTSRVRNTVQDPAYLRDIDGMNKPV
T4 sequence (P21554 whole entry): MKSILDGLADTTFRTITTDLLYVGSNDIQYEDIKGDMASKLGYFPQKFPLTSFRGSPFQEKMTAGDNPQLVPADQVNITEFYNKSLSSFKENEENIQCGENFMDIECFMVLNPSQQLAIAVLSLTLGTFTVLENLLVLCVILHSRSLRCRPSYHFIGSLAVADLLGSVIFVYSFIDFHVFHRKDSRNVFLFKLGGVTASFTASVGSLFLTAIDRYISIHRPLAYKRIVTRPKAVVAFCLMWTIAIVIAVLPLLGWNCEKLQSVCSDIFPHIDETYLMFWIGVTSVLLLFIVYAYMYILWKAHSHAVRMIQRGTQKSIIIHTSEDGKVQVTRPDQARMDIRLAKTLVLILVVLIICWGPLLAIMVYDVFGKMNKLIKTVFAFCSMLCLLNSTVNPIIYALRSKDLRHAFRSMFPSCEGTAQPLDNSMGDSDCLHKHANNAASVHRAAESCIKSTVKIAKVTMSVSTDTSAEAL
T3 sequence (Q9HC97 whole entry): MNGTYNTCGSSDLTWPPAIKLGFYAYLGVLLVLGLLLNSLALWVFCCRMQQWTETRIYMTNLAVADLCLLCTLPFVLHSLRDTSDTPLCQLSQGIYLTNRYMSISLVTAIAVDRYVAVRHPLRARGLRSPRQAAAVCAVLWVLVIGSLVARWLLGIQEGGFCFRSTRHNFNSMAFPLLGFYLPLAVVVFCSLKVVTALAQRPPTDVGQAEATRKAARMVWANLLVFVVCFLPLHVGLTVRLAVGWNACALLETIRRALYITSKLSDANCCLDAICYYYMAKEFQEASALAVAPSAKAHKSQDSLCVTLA
T2 sequence (P34972 whole entry): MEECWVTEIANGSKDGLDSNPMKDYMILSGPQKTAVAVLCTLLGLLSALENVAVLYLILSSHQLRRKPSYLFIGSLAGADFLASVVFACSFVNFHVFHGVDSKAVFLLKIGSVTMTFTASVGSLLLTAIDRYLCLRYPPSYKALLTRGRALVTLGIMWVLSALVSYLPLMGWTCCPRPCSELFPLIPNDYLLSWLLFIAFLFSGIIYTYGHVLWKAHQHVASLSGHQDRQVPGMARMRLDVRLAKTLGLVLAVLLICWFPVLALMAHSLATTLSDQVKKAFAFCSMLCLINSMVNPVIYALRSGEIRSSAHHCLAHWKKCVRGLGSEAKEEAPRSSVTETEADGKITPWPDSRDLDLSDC
Chain of Delta-type opioid receptor (P41143 whole entry): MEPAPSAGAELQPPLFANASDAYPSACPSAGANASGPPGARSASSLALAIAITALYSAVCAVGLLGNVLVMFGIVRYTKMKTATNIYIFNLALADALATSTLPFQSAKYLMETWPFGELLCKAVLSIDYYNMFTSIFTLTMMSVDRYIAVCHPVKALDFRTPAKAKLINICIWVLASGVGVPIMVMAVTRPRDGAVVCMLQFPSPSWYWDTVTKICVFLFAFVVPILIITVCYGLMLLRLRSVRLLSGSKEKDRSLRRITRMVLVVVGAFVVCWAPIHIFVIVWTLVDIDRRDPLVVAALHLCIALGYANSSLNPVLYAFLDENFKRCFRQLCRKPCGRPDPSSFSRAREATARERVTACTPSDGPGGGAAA
Chain of DNA damage-inducible transcript 3 protein (P35639 whole entry): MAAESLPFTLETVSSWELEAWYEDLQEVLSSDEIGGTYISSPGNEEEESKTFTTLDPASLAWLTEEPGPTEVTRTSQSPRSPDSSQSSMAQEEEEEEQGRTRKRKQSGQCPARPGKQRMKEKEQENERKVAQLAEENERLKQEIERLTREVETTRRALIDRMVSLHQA
Chain of Type-1 angiotensin II receptor (P30556 whole entry, the tested form may be a part): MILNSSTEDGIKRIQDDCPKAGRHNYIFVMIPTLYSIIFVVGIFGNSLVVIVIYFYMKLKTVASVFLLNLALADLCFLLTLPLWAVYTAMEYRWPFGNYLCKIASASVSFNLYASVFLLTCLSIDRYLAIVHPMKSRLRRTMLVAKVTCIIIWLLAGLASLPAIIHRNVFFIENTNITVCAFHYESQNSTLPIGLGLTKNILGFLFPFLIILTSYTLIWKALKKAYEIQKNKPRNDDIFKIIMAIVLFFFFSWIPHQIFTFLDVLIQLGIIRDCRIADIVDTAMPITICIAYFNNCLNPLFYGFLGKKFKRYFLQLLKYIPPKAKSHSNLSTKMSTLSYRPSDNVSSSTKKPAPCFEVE
Chain of G-protein coupled receptor 55 (Q9Y2T6 whole entry): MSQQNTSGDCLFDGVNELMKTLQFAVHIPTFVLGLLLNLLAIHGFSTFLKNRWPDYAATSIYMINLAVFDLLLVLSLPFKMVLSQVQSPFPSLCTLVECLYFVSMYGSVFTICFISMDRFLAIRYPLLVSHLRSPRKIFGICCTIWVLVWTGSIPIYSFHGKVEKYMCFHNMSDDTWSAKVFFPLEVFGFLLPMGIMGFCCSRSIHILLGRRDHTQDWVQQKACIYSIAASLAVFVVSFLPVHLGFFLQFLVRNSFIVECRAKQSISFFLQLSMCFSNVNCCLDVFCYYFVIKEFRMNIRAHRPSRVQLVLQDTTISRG
Chain of Envelope glycoprotein gp160 (Q6QLK5 whole entry, the tested form may be a part): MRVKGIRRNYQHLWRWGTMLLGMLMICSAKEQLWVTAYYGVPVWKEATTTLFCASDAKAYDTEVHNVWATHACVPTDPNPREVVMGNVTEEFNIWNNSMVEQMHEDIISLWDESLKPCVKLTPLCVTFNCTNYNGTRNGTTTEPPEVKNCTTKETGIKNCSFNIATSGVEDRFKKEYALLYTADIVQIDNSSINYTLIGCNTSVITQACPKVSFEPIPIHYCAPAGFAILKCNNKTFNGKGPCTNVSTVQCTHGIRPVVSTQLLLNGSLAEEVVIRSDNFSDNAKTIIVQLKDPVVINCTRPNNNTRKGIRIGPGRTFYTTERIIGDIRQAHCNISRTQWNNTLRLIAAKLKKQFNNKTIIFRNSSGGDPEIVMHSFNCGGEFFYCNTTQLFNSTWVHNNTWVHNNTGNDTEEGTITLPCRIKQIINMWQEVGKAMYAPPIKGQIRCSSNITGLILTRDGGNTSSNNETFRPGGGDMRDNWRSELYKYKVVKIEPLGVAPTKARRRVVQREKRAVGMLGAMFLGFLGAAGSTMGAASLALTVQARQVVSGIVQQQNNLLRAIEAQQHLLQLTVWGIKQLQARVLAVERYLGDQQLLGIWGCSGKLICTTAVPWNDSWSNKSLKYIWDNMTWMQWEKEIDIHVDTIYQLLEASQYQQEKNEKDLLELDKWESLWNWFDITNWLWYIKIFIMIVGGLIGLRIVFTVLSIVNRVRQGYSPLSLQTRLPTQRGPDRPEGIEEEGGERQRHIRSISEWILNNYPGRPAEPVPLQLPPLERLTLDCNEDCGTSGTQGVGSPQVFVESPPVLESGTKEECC
Chain of Alkaline phosphatase, placental type (P05187 whole entry, the tested form may be a part): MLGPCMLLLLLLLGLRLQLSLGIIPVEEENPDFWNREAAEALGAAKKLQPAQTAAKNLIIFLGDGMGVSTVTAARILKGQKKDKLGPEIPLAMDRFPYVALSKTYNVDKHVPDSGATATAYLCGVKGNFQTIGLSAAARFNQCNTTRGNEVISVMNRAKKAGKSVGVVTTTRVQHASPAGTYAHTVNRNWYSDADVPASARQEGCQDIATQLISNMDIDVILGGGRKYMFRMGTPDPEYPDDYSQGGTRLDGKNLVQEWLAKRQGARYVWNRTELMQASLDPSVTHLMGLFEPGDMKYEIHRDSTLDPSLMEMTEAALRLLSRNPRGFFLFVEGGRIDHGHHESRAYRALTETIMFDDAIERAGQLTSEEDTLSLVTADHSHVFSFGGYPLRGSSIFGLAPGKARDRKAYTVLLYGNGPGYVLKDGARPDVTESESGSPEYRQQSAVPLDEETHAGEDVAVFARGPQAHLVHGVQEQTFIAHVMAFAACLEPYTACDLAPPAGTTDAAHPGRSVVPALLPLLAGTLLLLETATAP
Chain of Mu-type opioid receptor (P35372 whole entry): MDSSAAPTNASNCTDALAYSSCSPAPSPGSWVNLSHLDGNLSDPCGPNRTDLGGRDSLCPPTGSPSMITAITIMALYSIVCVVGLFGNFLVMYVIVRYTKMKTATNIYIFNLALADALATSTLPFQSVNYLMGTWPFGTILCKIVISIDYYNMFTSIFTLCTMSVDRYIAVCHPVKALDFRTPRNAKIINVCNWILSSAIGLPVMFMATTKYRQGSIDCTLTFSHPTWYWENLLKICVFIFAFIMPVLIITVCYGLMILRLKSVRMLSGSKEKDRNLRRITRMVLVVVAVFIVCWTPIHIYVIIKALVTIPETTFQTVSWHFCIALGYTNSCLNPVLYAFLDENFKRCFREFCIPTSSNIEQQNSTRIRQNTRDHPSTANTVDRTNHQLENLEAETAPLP

`O=C(Cn1c(=O)c2cccn2c2cc(Br)cnc21)NCCCN1CCN(c2ccc3c(c2)OCO3)CC1` was tested, and the IC50 (Mu-type opioid receptor) was > 32 µM (inactive), the IC50 [1] was 2.42 µM (active) and the IC50 [2] was > 32 µM (inactive). The IC50 [3] was 3.81 µM (active) and the IC50 [4] was 0.147 µM (active).
`O=C(Nc1cccc(S(=O)(=O)N2CCOCC2)c1)c1cc2c(s1)CCCC2` was tested, and the IC50 (Cannabinoid receptor 2 [5]) was > 32 µM (inactive), the EC50 [6] was > 32 µM (inactive) and the EC50 (Cannabinoid receptor 2 [7]) was > 32 µM (inactive). The EC50 [8] was > 32 µM (inactive), the IC50 (Cannabinoid receptor 1 [9]) was > 32 µM (inactive) and the EC50 (Cannabinoid receptor 1 [10]) was > 32 µM (inactive). The IC50 [11] was > 32 µM (inactive).
With `O=C1Nc2ccc([N+](=O)[O-])cc2C12NNc1ccccc1O2` (stereo not drawn) the IC50 [12] was > 100 µM (inactive), the IC50 [13] was > 100 µM (inactive) and the IC50 [14] was > 100 µM (inactive).
With `CCOc1ccc(NC(=O)c2cnn3c(O)cc(C4CCN(C(=O)OC(C)(C)C)CC4)nc23)cc1` the IC50 [15] was > 99 µM (inactive) and the EC50 [16] was 4.22 µM (active).
For `Cc1cc(C)n2nc3nc(N4CCCCC4)nc(-c4ccco4)c3c2n1`, the EC50 [17] was > 100 µM (inactive).
In the case of `CCOC(=O)C(O)(c1ccc(NC(=S)NC(=O)c2ccc(Cl)cc2Cl)c(C)c1)C(F)(F)F` (stereo not drawn), the EC50 [18] is reported as 3.35 µM (active).
`CCNC(=S)N/N=C/c1cc(Br)cc(Br)c1OC` was tested, and the “Absolute IC50 (CHOP)” value [19] was 10 µM.
`Cc1cccc(C)c1OCC(=O)N/N=C/c1cc2c(cc1[N+](=O)[O-])OCO2` was tested, and the IC50 (Coagulation factor XII) was > 50 µM (inactive).
In the case of `COc1cc(C(=S)NCc2ccccc2)ccc1O`, the IC50 [20] is reported as 0.665 µM (active) and the IC50 [21] is reported as > 100 µM (inactive).
